Test results taken from ChEMBL document CHEMBL5131548, “Novel Bis-phosphoglycerate Mutase Modulators for Treating Sickle Cell Disease” (ACS Med Chem Lett, 2022).
pIC50: −log10 of the molar value.

Target: T1, Bisphosphoglycerate mutase (Homo sapiens, UniProt P07738)
T1 sequence (P07738 whole entry): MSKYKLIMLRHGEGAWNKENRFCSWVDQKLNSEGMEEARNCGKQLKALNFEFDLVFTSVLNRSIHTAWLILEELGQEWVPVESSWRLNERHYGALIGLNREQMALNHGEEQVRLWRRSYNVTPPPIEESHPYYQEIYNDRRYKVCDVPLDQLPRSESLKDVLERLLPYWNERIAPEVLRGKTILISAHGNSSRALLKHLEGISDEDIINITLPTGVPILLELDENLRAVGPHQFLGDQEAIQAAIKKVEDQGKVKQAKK
Assay: Inhibition of human Bis-phosphoglycerate mutase using 3-PG, GAP and NAD as substrate preincubated for 30 mins followed by substrate addition and measured after 100 mins in presence of GAPDH by resazurin reagent based fluorescence analysis

SMILES | pIC50
Cc1nc(COc2cccnn2)sc1-c1csc(-c2cc(F)c3[nH]nnc3c2)n1 | 7.04
Cc1nc(COCC(C)(C)O)sc1-c1cccc(-c2cc(F)c3nn[nH]c3c2F)n1 | 7.72

More lines, in order of rising pIC50, values ahead:

pIC50 | SMILES
6.80 | Cc1nc(COc2ncccn2)sc1-c1csc(-c2cc(F)c(O)c(F)c2F)n1
6.86 | Cc1nc(COc2ncccn2)sc1-c1cccc(-c2ccc(-c3noc(=O)[nH]3)cc2)n1
7.68 | Cc1cnc(OCc2nc(C)c(-c3cccc(-c4cc(F)c5nn[nH]c5c4F)n3)s2)nc1
